Tested on: human corneal epithelial (HCE) cell line
Assay: Cytotoxicity neutral red test
Type: cell-based
Settings: HCE cells, 30 minutes incubation
Experimental: A human corneal epithelial (HCE) cell line was cultured in Dulbecco's essential medium (Eurobio, Les Ulis, France) supplemented with 10% fetal calf serum (Eurobio), 1% glutamine (Eurobio) and 1% penicillin and streptomycin (Eurobio). Cultures were maintained at 37° C. in 5% CO2 in a humidified incubator.
All wells were seeded with the same number of cells (9×10^4 cells/mL solution). After 24 hours, the cells reached about 70% to 80% confluency. The cells were washed with PBS and incubated for 30 minutes with 100 μL of gels in situ. […] The cells were then washed with PBS. A neutral red test was performed immediately after incubation and after 24 hours of recovery in the culture medium. The experiments were performed in triplicate.
The neutral red test (Fluka, Buchs, Switzerland) is a cell viability test based on the ability of viable cells to incorporate neutral red, which is a weak cationic dye that readily penetrates cell membranes by nonionic diffusion and accumulates in lysosomes. […] The integrity of the lysosomal membrane is closely related to cell viability and is assessed by neutral red fluorescence (excitation at 535 nm; emission at 600 nm). […] The dye was then released from the cells using 200 μL of lysis solution per well (1% acetic acid, 50% ethanol and 49% H2O), then the fluorescence was measured using a fluorometer for microplates (Safire; Tecan, Lyon, France).

In the case of `CNC[C@H](O)c1cccc(O)c1` [PHE, phenylephrine], the “effect on cell viability” value is reported as “significant cytotoxicity”.

Source: patent publication US12527752B2, “Composition based on gellan gum and phenylephrine, production method and use as an ophthalmic product” (UNITHER PHARMACEUTICALS, priority 2019, dated 2026)
